According to patent publication US12268682B2, “Anticancer drug FL118 formulation for treatment of human cancer” (CANGET BIOTEKPHARMA, LLC, priority 2019, dated 2025):
Like-named read-outs stand apart in the source and are kept apart here.

Assays:
[1] = test system: primary MM cells; experiment: Flow cytometry-based ex vivo assay using BMMNCs from MM patients; format: cell-based, human
Description: Flow cytometry-based […] assays using BMMNCs: Cryopreserved BMMNCs derived from MM patients were incubated on a monolayer of 2×10^4 BMMSCs for 16 till 24 hours and subsequently treated with FL118 ([…]) and/or, melphalan (5-10 μM/L), bortezomib (2-3 nmol/L) for 48 hours. Concerning immunotherapy, treatment included FL118 (10 or 100 nM) and/or daratumumab, or CAR T-cells for 24 hours. BMMNC samples contained sufficient numbers of functional effector cells to induce antibody-mediated plasma cell lysis. At the end of treatment, after addition of flow-count fluorospheres (Beckman Coulter), adherent cells were detached with Accutase, blocked with human immunoglobulin (100 μg/mL, Sanquin), and stained for CD38, CD138, CD45 (Beckman Coulter) and live/dead cell marker (LIVE/DEAD Fixable Near-111; Life Technologies) to determine absolute numbers of viable MM cells using flow cytometry. The percentage lysis was then calculated using the following formula: % lysis cells=1−absolute number of viable CD138^+ CD38^+ CD45^dim MM cells in treated wells/mean absolute number of viable CD138^+ CD38^+ CD45^dim MM cells in untreated wells×100%.

[2] = test system: pro-apoptotic signaling, cleavage of caspase-3 and PARP; experiment: Western blotting of FL118-treated MM cell lines; format: cell-based, human
Description: Western blotting: Untreated or FL118 treated (16 h) MM cell lines were washed twice with ice-cold PBS. Cell pellets were then snap-frozen and stored at −80° C. until further use. Pellets were dissolved in Radioimmunoprecipitation (RIPA) lysis buffer, supplemented with protease inhibitor cocktail (Roche) and incubated on ice for 45 minutes. Lysates were centrifuged at 14000 g for 10 minutes at 4° C. and supernatant was collected. Protein concentrations were determined by a DC protein assays (Bio-Rad). Samples were separated on 4-20% Mini-protean TGX precast gels (Bio-Rad) and proteins were transferred to Immobilon-FL PVDF membrane (Merck Millipore). After 1 h blocking with Odyssey Block Buffer (LI-COR) at room temperature, membranes were incubated with primary antibodies over night at 4° C. (anti-Mcl-1, anti-survivin Santa Cruz; anti-XIAP, anti-Bcl-2, anti-PUMA, anti-p21 Waf/Cip1, anti-PARP, anti-caspase-3 Cell Signaling Technology; anti-p53 DAKO; anti-NOXA, anti-Actin Merck Millipore). Blots were visualized by Odyssey infrared imaging (LICOR Biosciences) using IRDye 680 Goat-anti-Rabbit (LI-COR Lincoln) and IRDye 800CW Goat-anti-Mouse IgG (LI-COR Lincoln) according to manufacturer's instructions. Band intensities were quantified using Odyssey software.

[3] = test system: UM9 cell line; experiment: BLI-based cytotoxicity assay with CAR T-cells or CTL 3AB11 on UM9; format: cell-based, human
Text: CD138-, BCMA- and CD38-specific CAR T-cells: All CAR T-cells with different specificities were generated with co-stimulatory domains 4-1BB, CD28, or CD28 supplemented with a separate 4-1BB ligand (28zBBL), with the technology as described previously (Kim J H, et al. PLoS One. 2011, 6:e18556; Drent E, et al. Clin Cancer Res. 2019, 25:4014-4025). CD138 CAR T-cells (nBT) were produced using single chain variable fragment (scFv) sequences of the published nBT062 monoclonal antibody (Ikeda H, et al. Clin Cancer Res. 2009, 15:4028-4037). BCMA CAR T-cells were produced using published scFv sequences derived from C11D5.3 monoclonal antibody (US2012/0082661 A1 (Shancer Z, et al. Antib Ther. 2018, 1:19-25) or from BCMA02 CAR (product name bb2121, WO 2016/094304 A2) (Raje N, et al. N Engl J Med. 2019, 380:1726-1737; Friedman K M, et al. Hum Gene Ther. 2018, 29:585-601). The generation and functional analysis of CD38 CAR T-cells with low (B1) or high (028) CD38-affinities has been described previously (Drent E, et al. Clin Cancer Res. 2019, 25:4014-4025; Drent E, et al. Mol Ther. 2017, 25:1946-1958). More detailed information on all CAR construct are listed in Table 1. CAR T-cells were tested 10-14 days after CAR transduction or frozen until testing. After thawing, CAR T-cells were cultured for 16 hours in 60 U/mL recombinant human IL-2 (R&D Systems)-containing culture medium (RPMI 1640 supplemented with heat-inactivated FBS (Sigma) and antibiotics), before using in experiments. Flow cytometry analysis, to determine the transduction efficiency and phenotypic profile of each CAR T-cell, was performed as previously described (Drent E, et al. Clin Cancer Res. 2019, 25:4014 4025; Drent E, et al. Mol Ther. 2017, 25:1946-1958) and illustrated in FIG. 10.
3AB11 was expanded using a feeder cell-cytokine mixture and cryopreserved until further use as described previously (Spaapen R, et al. Clin Cancer Res. 2007, 13:4009-4015).

[4] = Storage and heat stability of FL118; format: physicochemical
[5] = test system: cancer cell growth; conditions: cited from earlier work
[6] = test system: survivin, Mcl-1, XIAP and cIAP2; conditions: cited from earlier work
[7] = cited from earlier work
[8] = BALE/cj mice; cited from earlier work
[9] = beagle dogs; cited from earlier work
[10] = test system: cisplatin-resistant pancreatic cancer cells; conditions: cited from earlier work
[11] = test system: cancer stem cells (CSCs); conditions: cited from earlier work
[12] = primary BMMNC samples, 48 hours

SMILES: CC[C@@]1(O)C(=O)OCc2c1cc1n(c2=O)Cc2cc3cc4c(cc3nc2-1)OCO4 [FL118]
- combination of FL118 with CAR T-cells, observed versus expected lysis ([1]; 10 nM FL118, BLISS model): synergistic fashion
- patient MM cell lysis by CAR T-cells in the presence of BMMSCs ([1]; 10 nM FL118, E:T ratio 1:1, 24 hours): significantly enhanced
- anti-MM activity of FL118 alone ([1]; 10 nM, 24 hours, patient-derived MM cells): no/minimal anti-MM activity
- BMMSC-mediated protection against daratumumab-induced MM cell lysis ([1]; 100 nM FL118, 10 μg/mL daratumumab, 24 hours): abrogated
- efficacy in RR patient samples compared to ND patient samples ([1]; 100 nmol/L, 24 hours, 12 RR and 15 ND): significantly more effective
- FL118-induced MM cell lysis ([1]; 100 nmol/L, 24 hours, in 15 of 27 patient samples): ≥ 20%
- interaction between FL118 and daratumumab in the presence of BMMSCs ([1]; observed versus expected lysis): synergistic
- combination effect with bortezomib (Bliss model) [1, 12]: additive effects
- combination effect with melphalan (Bliss model) [1, 12]: synergistic effects
- pro-apoptotic signaling ([2]; high- and intermediate-susceptible MM1.s and U266, 16 hours): promotes pro-apoptotic signaling
- pro-apoptotic signaling ([2]; low-susceptible L363, 16 hours): not
- BMMSC protective effect against CTL 3AB11 lysis ([3]; 24 hours): completely abrogated
- combination effect with CTL 3AB11 ([3]; Chou-Talalay): synergistic fashion
- combination index (CI) values, FL118 and CAR T-cells ([3]; Chou-Talalay, especially in the presence of BMMSCs): below 1
- BMMSC-mediated protection against CAR T-cells ([3]; combined with CAR T-cells, even at doses as low as 3 nM): effectively modulated
- lysis of MM-cells by FL118 alone ([3]; regardless of the presence of BMMSCs, 24 hours): dose-dependent lysis
- stability at high temperature ([4]; 60-80° C., spray-dry process, at least a period of time): without any issues
- storage stability ([4]; before and/or after formulation, room temperature or 4° C.): highly stable
- concentration range for inhibition of cancer cell growth [5]: high pM to low nM range
- inhibition of expression of survivin, Mcl-1, XIAP and cIAP2 [6]: selectively inhibits
- oral availability ([7]; in vivo, po): orally available
- pharmacokinetics (PK) profile ([7]; intravenous administration, accumulated in tumor, rapidly cleared in blood stream): favorable
- hematopoietic and biochemical toxicities [8]: very low
- hematopoietic and biochemical toxicities [9]: very low
- activity on cisplatin-resistant pancreatic cancer cells [10]: preferentially targets and kills
- spheroid formation of pancreatic cancer stem cells [10]: inhibits
- expression of CSC markers (ABCG2, ALDH1A1, Oct4) [11]: downregulates
- invasive ability of CSCs [11]: effectively decreases
